What was measured:
Format in all cases: in vivo
[1] = tested on: sedge, umbrella (small-flower umbrella sedge, Cyperus difformis); experiment: Test B flooded paddy test, visual plant response rating; conditions: 250 g ai/ha, Flood, applied to paddy water, 2-leaf stage, evaluated after 13 to 15 days
Procedure, shortened: (§1)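 At the two-leaf stage, seedlings received compound applied to paddy water flooded 3 cm above soil, a level sustained until assessment. Greenhouse incubation lasted 13 to 15 days before visual comparison with control plants.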

rice (Oryza sativa) = experiment: as above; conditions: 250 g ai/ha, Flood, applied to paddy water, 2-leaf stage, evaluated after 13 to 15 days
Procedure, shortened: as §1

[2] = tested on: ducksalad (Heteranhera limosa); experiment: as above; conditions: 250 g ai/ha, Flood, applied to paddy water, 2-leaf stage, evaluated after 13 to 15 days
Procedure, shortened: as §1

[3] = tested on: barnyardgrass (Echinochloa crus-galli); experiment: as above; conditions: 250 g ai/ha, Flood, applied to paddy water, 2-leaf stage, evaluated after 13 to 15 days
Procedure, shortened: as §1

kochia (Kochia scoparia) [4] = experiment: Test A postemergence, visual plant response rating; conditions: for Kochia plant response rating (0 to 100 scale): 500 g ai/ha, postemergence, 0 is no effect, 100 is complete control; for Kochia plant response rating: Postemergence, 125 g ai/ha, 0 to 100 scale (0 no effect, 100 complete control)
Procedure, shortened: (§2)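 Formulated in a non-phytotoxic solvent mixture including surfactant, each test chemical was sprayed onto the soil surface after sowing, or onto seedlings 2 to 10 cm high. Roughly 10 days later, plants were compared with untreated controls and rated for injury from 0 (no effect) to 100 (complete control).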

corn (Zea mays) = experiment: Test A postemergence, visual plant response rating; conditions: for Corn plant response rating (0 to 100 scale): 500 g ai/ha, postemergence, 0 is no effect, 100 is complete control; for Corn plant response rating: Postemergence, 125 g ai/ha, 0 to 100 scale (0 no effect, 100 complete control)
Procedure, shortened: as §2

[5] = tested on: pigweed (Amaranthus retroflexus); experiment: Test A postemergence, visual plant response rating; conditions: for Pigweed plant response rating (0 to 100 scale): 500 g ai/ha, postemergence, 0 is no effect, 100 is complete control; for Pigweed plant response rating: Postemergence, 125 g ai/ha, 0 to 100 scale (0 no effect, 100 complete control)
Procedure, shortened: as §2

[6] = tested on: wheat (Triticum aestivum); experiment: Test A postemergence, visual plant response rating; conditions: for Wheat plant response rating (0 to 100 scale): 500 g ai/ha, postemergence, 0 is no effect, 100 is complete control; for Wheat plant response rating: Postemergence, 125 g ai/ha, 0 to 100 scale (0 no effect, 100 complete control)
Procedure, shortened: as §2

[7] = tested on: blackgrass (Alopecurus myosuroides); experiment: Test A postemergence, visual plant response rating; conditions: for Blackgrass plant response rating (0 to 100 scale): 500 g ai/ha, postemergence, 0 is no effect, 100 is complete control; for Blackgrass plant response rating: Postemergence, 125 g ai/ha, 0 to 100 scale (0 no effect, 100 complete control)
Procedure, shortened: as §2

[8] = tested on: foxtail, giant (giant foxtail, Setaria faberii); experiment: Test A postemergence, visual plant response rating; conditions: for Foxtail, Giant plant response rating (0 to 100 scale): 500 g ai/ha, postemergence, 0 is no effect, 100 is complete control; for Foxtail, Giant plant response rating: Postemergence, 125 g ai/ha, 0 to 100 scale (0 no effect, 100 complete control)
Procedure, shortened: as §2

[9] = tested on: galium (catchweed bedstraw, Galium aparine); experiment: Test A postemergence, visual plant response rating; conditions: for Galium plant response rating (0 to 100 scale): 500 g ai/ha, postemergence, 0 is no effect, 100 is complete control; for Galium plant response rating: Postemergence, 125 g ai/ha, 0 to 100 scale (0 no effect, 100 complete control)
Procedure, shortened: as §2

[10] = tested on: Italian ryegrass (Lolium multiflorum); experiment: Test A postemergence, visual plant response rating; conditions: for Ryegrass, Italian plant response rating (0 to 100 scale): 500 g ai/ha, postemergence, 0 is no effect, 100 is complete control; for Ryegrass, Italian plant response rating: Postemergence, 125 g ai/ha, 0 to 100 scale (0 no effect, 100 complete control)
Procedure, shortened: as §2

[11] = tested on: barnyardgrass (Echinochloa crus-galli); experiment: Test A postemergence, visual plant response rating; conditions: for Barnyardgrass plant response rating (0 to 100 scale): 500 g ai/ha, postemergence, 0 is no effect, 100 is complete control; for Barnyardgrass plant response rating: Postemergence, 125 g ai/ha, 0 to 100 scale (0 no effect, 100 complete control)
Procedure, shortened: as §2

[12] = tested on: ragweed (common ragweed, Ambrosia elatior); experiment: Test A postemergence, visual plant response rating; conditions: for Ragweed plant response rating (0 to 100 scale): 500 g ai/ha, postemergence, 0 is no effect, 100 is complete control; for Ragweed plant response rating: Postemergence, 125 g ai/ha, 0 to 100 scale (0 no effect, 100 complete control)
Procedure, shortened: as §2

kochia (Kochia scoparia) [13] = experiment: Test A preemergence, visual plant response rating; conditions: for Kochia plant response rating: 125 g ai/ha, preemergence, 0 to 100 scale, 0 no effect, 100 complete control; for Kochia plant response rating (0 to 100 scale): 500 g ai/ha Preemergence, approx. 10 days
Procedure, shortened: as §2

[14] = tested on: pigweed (Amaranthus retroflexus); experiment: Test A preemergence, visual plant response rating; conditions: for Pigweed plant response rating: 125 g ai/ha, preemergence, 0 to 100 scale, 0 no effect, 100 complete control; for Pigweed plant response rating (0 to 100 scale): 500 g ai/ha Preemergence, approx. 10 days
Procedure, shortened: as §2

[15] = tested on: foxtail, giant (giant foxtail, Setaria faberii); experiment: Test A preemergence, visual plant response rating; conditions: for Foxtail, Giant plant response rating: 125 g ai/ha, preemergence, 0 to 100 scale, 0 no effect, 100 complete control; for Foxtail, Giant plant response rating (0 to 100 scale): 500 g ai/ha Preemergence, approx. 10 days
Procedure, shortened: as §2

[16] = tested on: Italian ryegrass (Lolium multiflorum); experiment: Test A preemergence, visual plant response rating; conditions: for Ryegrass, Italian plant response rating: 125 g ai/ha, preemergence, 0 to 100 scale, 0 no effect, 100 complete control; for Ryegrass, Italian plant response rating (0 to 100 scale): 500 g ai/ha Preemergence, approx. 10 days
Procedure, shortened: as §2

[17] = tested on: barnyardgrass (Echinochloa crus-galli); experiment: Test A preemergence, visual plant response rating; conditions: for Barnyardgrass plant response rating: 125 g ai/ha, preemergence, 0 to 100 scale, 0 no effect, 100 complete control; for Barnyardgrass plant response rating (0 to 100 scale): 500 g ai/ha Preemergence, approx. 10 days
Procedure, shortened: as §2

[18] = tested on: ragweed (common ragweed, Ambrosia elatior); experiment: Test A preemergence, visual plant response rating; conditions: for Ragweed plant response rating: 125 g ai/ha, preemergence, 0 to 100 scale, 0 no effect, 100 complete control; for Ragweed plant response rating (0 to 100 scale): 500 g ai/ha Preemergence, approx. 10 days
Procedure, shortened: as §2

| Structure (SMILES) | Plant response rating, Sedge, Umbrella (0 to 100 scale, 0 is no effect, 100 is complete control) [1] | Plant response rating, Rice (0 to 100 scale, 0 is no effect, 100 is complete control) (rice (Oryza sativa)) | Plant response rating, Ducksalad (0 to 100 scale, 0 is no effect, 100 is complete control) [2] | Plant response rating, Barnyardgrass (0 to 100 scale, 0 is no effect, 100 is complete control) [3] | Kochia plant response rating (0 to 100 scale) (kochia (Kochia scoparia) [4]) | Kochia plant response rating (kochia (Kochia scoparia) [4]) | Corn plant response rating (0 to 100 scale) (corn (Zea mays)) | Corn plant response rating (corn (Zea mays)) | Pigweed plant response rating (0 to 100 scale) [5] | Pigweed plant response rating [5] | Wheat plant response rating (0 to 100 scale) [6] | Wheat plant response rating [6] | Blackgrass plant response rating (0 to 100 scale) [7] | Blackgrass plant response rating [7] | Foxtail, Giant plant response rating (0 to 100 scale) [8] | Foxtail, Giant plant response rating [8] | Galium plant response rating (0 to 100 scale) [9] | Galium plant response rating [9] | Ryegrass, Italian plant response rating (0 to 100 scale) [10] | Ryegrass, Italian plant response rating [10] | also measured |
| --- | --- | --- | --- | --- | --- | --- | --- | --- | --- | --- | --- | --- | --- | --- | --- | --- | --- | --- | --- | --- | --- |
| CON=C(c1c(O)c(C)nn(C)c1=O)c1cccc2ccsc12 (single isomer, unassigned) [Compound 47] | 0 | 0 | 0 | 0 | 30 | 10 | 20 | 0 | 90 | 60 | 0 | 0 | 30 | 20 | 70 | 30 | 100 | 70 | 70 | 0 | Barnyardgrass plant response rating (0 to 100 scale) [11]: 20; Barnyardgrass plant response rating [11]: 30; Ragweed plant response rating (0 to 100 scale) [12]: 90; Ragweed plant response rating [12]: 80; Kochia plant response rating (kochia (Kochia scoparia) [13]): 0; Kochia plant response rating (0 to 100 scale) (kochia (Kochia scoparia) [13]): 90; Pigweed plant response rating [14]: 20; Pigweed plant response rating (0 to 100 scale) [14]: 80; Foxtail, Giant plant response rating [15]: 20; Foxtail, Giant plant response rating (0 to 100 scale) [15]: 90; Ryegrass, Italian plant response rating [16]: 10; Ryegrass, Italian plant response rating (0 to 100 scale) [16]: 70; Barnyardgrass plant response rating [17]: 0; Barnyardgrass plant response rating (0 to 100 scale) [17]: 50; Ragweed plant response rating [18]: 100; Ragweed plant response rating (0 to 100 scale) [18]: 100 |
| CO/N=C(\c1c(O)c(Cl)nn(C)c1=O)c1cccc2ccccc12 [Compound 129, 6-chloro-5-hydroxy-4-[(Z)-(methoxyimino)-1-naphthalenylmethyl]-2-methyl-3(2H)-pyridazinone] | 0 | 0 | 0 | 0 | 80 | 70 | 0 | 0 | 70 | 40 | 0 | 0 | 70 | 30 | 60 | 40 | 90 | 80 | 10 | 0 | Barnyardgrass plant response rating (0 to 100 scale) [11]: 50; Barnyardgrass plant response rating [11]: 30; Ragweed plant response rating (0 to 100 scale) [12]: 100; Ragweed plant response rating [12]: 90; Kochia plant response rating (kochia (Kochia scoparia) [13]): 10; Kochia plant response rating (0 to 100 scale) (kochia (Kochia scoparia) [13]): 50; Pigweed plant response rating [14]: 10; Pigweed plant response rating (0 to 100 scale) [14]: 90; Foxtail, Giant plant response rating [15]: 60; Foxtail, Giant plant response rating (0 to 100 scale) [15]: 80; Ryegrass, Italian plant response rating [16]: 0; Ryegrass, Italian plant response rating (0 to 100 scale) [16]: 0; Barnyardgrass plant response rating [17]: 60; Barnyardgrass plant response rating (0 to 100 scale) [17]: 80; Ragweed plant response rating [18]: 70; Ragweed plant response rating (0 to 100 scale) [18]: 100 |
| C=CCON=C(c1c(O)c(C)nn(C)c1=O)c1cc(Br)cc2ccccc12 [Compound 115] | 85 | 35 | 80 | 75 | 60 | 30 | 70 | 20 | 90 | 60 | 40 | 20 | 90 | 80 | 90 | 90 | 100 | 100 | 90 | 80 | Barnyardgrass plant response rating (0 to 100 scale) [11]: 90; Barnyardgrass plant response rating [11]: 80; Ragweed plant response rating (0 to 100 scale) [12]: 100; Ragweed plant response rating [12]: 90; Kochia plant response rating (0 to 100 scale) (kochia (Kochia scoparia) [13]): 10; Pigweed plant response rating [14]: 30; Pigweed plant response rating (0 to 100 scale) [14]: 90; Foxtail, Giant plant response rating [15]: 90; Foxtail, Giant plant response rating (0 to 100 scale) [15]: 100; Ryegrass, Italian plant response rating [16]: 80; Ryegrass, Italian plant response rating (0 to 100 scale) [16]: 90; Barnyardgrass plant response rating [17]: 90; Barnyardgrass plant response rating (0 to 100 scale) [17]: 100; Ragweed plant response rating [18]: 90; Ragweed plant response rating (0 to 100 scale) [18]: 90 |

From patent US20210045385A1, “PYRIDAZINONE-SUBSTITUTED KETOXIMES AS HERBICIDES” (FMC Corporation, priority 2018, published 2021)
